Results: ChEMBL document CHEMBL1201862, “PubChem BioAssay data set” (2004)
Each block holds one molecule with its values, some of them ahead of it. Activity calls are given as the source filed them.

Assays:
Format in all cases: functional
[1] = molecular target: T1, Sentrin-specific protease 8 (Homo sapiens, UniProt Q96LD8); test: SENP8 protease inhibitors, SAR follow-up, biochemical, luminescence (AID 504501)
T1 sequence (Q96LD8 whole entry): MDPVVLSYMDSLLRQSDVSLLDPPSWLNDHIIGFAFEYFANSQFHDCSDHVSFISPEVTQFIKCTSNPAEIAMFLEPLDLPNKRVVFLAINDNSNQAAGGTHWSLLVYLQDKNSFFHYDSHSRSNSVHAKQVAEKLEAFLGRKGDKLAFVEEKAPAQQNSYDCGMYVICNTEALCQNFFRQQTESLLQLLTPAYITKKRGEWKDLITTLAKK

Caspase-3 = molecular target: T2, Caspase-3 (Homo sapiens, UniProt P42574); test: Dose-response confirmation of uHTS inhibitor hits of Sentrin-Specific Protease 8 in a Caspase-3 Fluorescence assay.
T2 sequence (P42574 whole entry): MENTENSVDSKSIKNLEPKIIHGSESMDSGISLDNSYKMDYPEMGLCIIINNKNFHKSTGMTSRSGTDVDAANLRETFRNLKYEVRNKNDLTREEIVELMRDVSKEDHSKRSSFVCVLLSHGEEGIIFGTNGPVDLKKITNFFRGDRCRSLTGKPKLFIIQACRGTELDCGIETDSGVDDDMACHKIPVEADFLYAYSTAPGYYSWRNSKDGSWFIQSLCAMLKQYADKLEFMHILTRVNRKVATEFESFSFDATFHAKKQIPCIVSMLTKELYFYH

SUMO-activating enzyme = SUMO-activating enzyme (Homo sapiens, UniProt Q9UBT2); test: SUMOylation inhibitor hit validation, confirmation, SUMOylation inhibitor project, biochemical, AlphaScreen (AID 2018)
[2] = molecular target: T3, Sentrin-specific protease 6 (Homo sapiens, UniProt Q9GZR1); test: SAR Analysis of small molecule inhibitors of Sentrin-specific protease 6 (SENP6) using a Luminescent assay. [Related pubchem assays (depositor defined):AID2582, AID2599]
T3 sequence (Q9GZR1 whole entry): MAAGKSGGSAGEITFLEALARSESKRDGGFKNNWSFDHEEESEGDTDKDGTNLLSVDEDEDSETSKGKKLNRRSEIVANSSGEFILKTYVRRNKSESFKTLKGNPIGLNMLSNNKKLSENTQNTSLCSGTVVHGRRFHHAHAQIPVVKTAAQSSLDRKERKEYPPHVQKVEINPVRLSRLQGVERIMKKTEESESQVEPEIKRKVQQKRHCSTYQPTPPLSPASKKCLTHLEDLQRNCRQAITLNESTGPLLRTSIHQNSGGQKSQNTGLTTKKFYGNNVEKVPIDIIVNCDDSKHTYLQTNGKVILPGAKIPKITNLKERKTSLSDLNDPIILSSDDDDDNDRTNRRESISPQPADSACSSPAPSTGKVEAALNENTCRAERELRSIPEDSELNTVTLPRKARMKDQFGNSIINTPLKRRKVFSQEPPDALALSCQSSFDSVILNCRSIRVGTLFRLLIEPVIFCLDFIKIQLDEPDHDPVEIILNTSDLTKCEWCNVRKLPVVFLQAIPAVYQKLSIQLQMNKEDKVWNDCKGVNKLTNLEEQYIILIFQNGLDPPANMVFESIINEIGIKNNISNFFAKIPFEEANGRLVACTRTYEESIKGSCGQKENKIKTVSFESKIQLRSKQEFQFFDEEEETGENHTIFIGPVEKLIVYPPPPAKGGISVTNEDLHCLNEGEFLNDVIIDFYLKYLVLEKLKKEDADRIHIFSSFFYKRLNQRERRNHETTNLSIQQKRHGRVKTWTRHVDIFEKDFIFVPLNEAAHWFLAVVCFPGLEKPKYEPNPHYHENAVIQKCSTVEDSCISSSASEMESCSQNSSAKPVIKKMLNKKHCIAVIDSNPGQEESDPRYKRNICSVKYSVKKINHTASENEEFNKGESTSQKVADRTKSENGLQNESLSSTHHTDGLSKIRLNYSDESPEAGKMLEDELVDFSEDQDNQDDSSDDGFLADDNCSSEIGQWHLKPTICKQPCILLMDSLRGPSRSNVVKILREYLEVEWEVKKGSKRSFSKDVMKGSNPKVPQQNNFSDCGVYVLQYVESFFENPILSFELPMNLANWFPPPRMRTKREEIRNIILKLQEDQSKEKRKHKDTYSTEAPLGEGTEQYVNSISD

[3] = molecular target: Dual specificity tyrosine-phosphorylation-regulated kinase 1A (Homo sapiens, UniProt Q13627);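 further: measured against DYRK1A as one member of a broad kinome profiling panel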
[4] = molecular target: Serine/threonine-protein kinase TBK1 (Homo sapiens, UniProt Q9UHD2); test: Navigating the Kinome. Panel member name: TBK1
Activated CDC42 kinase 1 = Activated CDC42 kinase 1 (Homo sapiens, UniProt Q07912); test: Navigating the Kinome. Panel member name: ACK1
[5] = molecular target: Serine/threonine-protein kinase 17A (Homo sapiens, UniProt Q9UEE5)
[6] = molecular target: Serine/threonine-protein kinase PAK 4 (Homo sapiens, UniProt O96013);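 further: value obtained within a kinome profiling panel in which PAK4 was one of the panel members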
[7] = molecular target: Mitogen-activated protein kinase 13 (Homo sapiens, UniProt O15264)
[8] = molecular target: Cyclin-dependent kinase 7 (Homo sapiens, UniProt P50613);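 further: value comes from a kinome-wide kinase profiling panel in which CDK7 is one member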
[9] = molecular target: Phosphorylase b kinase gamma catalytic chain, liver/testis isoform (Homo sapiens, UniProt P15735);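 further: PHKG2 measured as one member of a kinome-wide kinase panel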
Focal adhesion kinase 1 = Focal adhesion kinase 1 (Homo sapiens, UniProt Q05397);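 further: measured as one member of a kinome panel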
[10] = molecular target: Leucine-rich repeat serine/threonine-protein kinase 2 (Homo sapiens, UniProt Q5S007);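 further: value from a broad kinome-wide panel profiling study in which LRRK2 was one of the kinases tested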
[11] = molecular target: Mitogen-activated protein kinase 14 (Homo sapiens, UniProt Q16539);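 further: part of a kinome-wide panel, MAPK14 entry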
Aurora kinase A = Aurora kinase A (Homo sapiens, UniProt O14965);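 further: value from the Navigating the Kinome kinase panel profiling, panel entry STK6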
[12] = molecular target: Tyrosine-protein kinase receptor UFO (Homo sapiens, UniProt P30530)
[13] = molecular target: Testis-specific serine/threonine-protein kinase 1 (Homo sapiens, UniProt Q9BXA7)
[14] = molecular target: MAP kinase-activated protein kinase 3 (Homo sapiens, UniProt Q16644);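 further: value comes from a kinome-wide profiling panel in which MAPKAPK3 is one of the panel members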
[15] = molecular target: BDNF/NT-3 growth factors receptor (Homo sapiens, UniProt Q16620);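 further: NTRK2 measured as one member of a broad kinome-wide kinase profiling panel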
[16] = molecular target: Mitogen-activated protein kinase 8 (Homo sapiens, UniProt P45983);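 further: value comes from one member of a kinome-wide kinase profiling panel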
[17] = molecular target: Inhibitor of nuclear factor kappa-B kinase subunit epsilon (Homo sapiens, UniProt Q14164); test: Navigating the Kinome. Panel member name: IKBKE
[18] = molecular target: Dual specificity protein kinase CLK2 (Homo sapiens, UniProt P49760)

Chain of BDNF/NT-3 growth factors receptor (Q16620 whole entry): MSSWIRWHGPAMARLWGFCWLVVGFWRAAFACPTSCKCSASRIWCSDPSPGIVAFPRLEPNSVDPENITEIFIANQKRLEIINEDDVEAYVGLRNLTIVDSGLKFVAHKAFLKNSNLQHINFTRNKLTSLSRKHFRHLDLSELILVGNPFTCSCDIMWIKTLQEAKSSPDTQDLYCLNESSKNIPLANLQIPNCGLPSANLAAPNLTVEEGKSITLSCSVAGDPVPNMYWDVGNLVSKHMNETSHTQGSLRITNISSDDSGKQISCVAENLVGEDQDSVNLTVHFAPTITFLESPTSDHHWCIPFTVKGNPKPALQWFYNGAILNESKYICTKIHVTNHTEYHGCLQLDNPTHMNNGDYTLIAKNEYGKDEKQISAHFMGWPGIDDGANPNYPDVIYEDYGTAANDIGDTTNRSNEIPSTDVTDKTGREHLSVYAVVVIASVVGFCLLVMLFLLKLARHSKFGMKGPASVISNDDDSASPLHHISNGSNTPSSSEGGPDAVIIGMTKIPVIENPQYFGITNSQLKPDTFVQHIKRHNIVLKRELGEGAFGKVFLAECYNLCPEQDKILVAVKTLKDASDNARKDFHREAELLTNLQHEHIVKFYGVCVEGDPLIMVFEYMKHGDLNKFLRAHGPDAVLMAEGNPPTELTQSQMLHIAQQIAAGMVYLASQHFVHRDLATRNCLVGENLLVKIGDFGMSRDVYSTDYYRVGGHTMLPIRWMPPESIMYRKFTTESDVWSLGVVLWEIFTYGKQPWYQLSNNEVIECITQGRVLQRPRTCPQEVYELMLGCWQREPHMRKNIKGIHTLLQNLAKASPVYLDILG
Chain of Aurora kinase A (O14965 whole entry): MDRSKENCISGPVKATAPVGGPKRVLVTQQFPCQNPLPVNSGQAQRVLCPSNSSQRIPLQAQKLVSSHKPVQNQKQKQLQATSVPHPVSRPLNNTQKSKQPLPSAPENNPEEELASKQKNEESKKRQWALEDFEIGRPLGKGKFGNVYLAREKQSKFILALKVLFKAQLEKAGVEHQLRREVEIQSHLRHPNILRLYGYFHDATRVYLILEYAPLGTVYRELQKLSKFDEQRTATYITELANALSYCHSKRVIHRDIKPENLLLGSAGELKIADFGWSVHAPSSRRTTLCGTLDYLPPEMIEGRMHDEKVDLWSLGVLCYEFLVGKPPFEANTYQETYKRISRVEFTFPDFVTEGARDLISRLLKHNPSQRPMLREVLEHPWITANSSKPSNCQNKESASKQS
Chain of Serine/threonine-protein kinase 17A (Q9UEE5 whole entry): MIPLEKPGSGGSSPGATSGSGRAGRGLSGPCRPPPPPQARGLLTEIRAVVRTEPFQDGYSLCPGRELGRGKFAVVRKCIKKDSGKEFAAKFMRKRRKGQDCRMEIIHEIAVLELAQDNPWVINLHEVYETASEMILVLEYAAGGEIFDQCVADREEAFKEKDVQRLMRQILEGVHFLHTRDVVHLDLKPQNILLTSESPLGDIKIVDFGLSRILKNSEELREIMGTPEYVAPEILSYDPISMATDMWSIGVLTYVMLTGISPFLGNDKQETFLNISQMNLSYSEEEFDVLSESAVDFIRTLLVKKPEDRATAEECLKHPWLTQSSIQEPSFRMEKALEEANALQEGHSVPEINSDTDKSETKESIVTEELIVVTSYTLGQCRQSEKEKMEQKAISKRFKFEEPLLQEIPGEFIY
Chain of Inhibitor of nuclear factor kappa-B kinase subunit epsilon (Q14164 whole entry): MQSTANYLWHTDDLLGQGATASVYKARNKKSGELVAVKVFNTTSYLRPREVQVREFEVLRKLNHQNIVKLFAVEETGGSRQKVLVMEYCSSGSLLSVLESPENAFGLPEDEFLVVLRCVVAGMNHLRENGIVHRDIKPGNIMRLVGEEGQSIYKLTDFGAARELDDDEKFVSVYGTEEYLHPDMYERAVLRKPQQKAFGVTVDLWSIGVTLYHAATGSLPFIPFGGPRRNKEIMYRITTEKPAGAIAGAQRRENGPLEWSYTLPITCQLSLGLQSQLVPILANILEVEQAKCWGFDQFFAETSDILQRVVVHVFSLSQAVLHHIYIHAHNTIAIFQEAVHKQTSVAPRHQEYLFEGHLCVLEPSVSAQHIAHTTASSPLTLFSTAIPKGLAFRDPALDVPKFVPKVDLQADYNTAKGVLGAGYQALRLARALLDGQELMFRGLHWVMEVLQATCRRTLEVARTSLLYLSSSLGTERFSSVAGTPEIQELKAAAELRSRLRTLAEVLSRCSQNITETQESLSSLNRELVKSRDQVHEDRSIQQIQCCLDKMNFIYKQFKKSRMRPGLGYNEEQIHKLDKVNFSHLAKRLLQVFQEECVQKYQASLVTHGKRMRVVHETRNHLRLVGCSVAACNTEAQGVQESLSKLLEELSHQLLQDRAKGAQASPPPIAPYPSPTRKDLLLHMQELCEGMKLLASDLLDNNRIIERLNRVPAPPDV
Chain of MAP kinase-activated protein kinase 3 (Q16644 whole entry): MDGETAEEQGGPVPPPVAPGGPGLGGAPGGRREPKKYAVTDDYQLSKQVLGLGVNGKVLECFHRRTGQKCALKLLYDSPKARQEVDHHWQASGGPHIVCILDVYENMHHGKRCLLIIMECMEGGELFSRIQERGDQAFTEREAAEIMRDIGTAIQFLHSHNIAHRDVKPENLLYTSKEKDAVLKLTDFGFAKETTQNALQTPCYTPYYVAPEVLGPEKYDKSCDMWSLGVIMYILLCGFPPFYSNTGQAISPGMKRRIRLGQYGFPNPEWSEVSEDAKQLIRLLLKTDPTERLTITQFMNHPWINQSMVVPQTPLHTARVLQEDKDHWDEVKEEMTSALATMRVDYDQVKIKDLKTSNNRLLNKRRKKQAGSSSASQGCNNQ
Chain of Mitogen-activated protein kinase 14 (Q16539 whole entry): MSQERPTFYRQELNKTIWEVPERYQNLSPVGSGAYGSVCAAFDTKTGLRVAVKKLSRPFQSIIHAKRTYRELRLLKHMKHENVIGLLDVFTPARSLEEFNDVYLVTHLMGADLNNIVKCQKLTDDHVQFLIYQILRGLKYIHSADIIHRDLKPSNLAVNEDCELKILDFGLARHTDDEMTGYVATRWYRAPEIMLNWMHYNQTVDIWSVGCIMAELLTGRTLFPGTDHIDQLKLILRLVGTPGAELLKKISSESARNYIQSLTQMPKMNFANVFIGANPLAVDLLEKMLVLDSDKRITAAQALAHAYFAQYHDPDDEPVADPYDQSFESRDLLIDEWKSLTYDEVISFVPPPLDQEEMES
Chain of Testis-specific serine/threonine-protein kinase 1 (Q9BXA7 whole entry): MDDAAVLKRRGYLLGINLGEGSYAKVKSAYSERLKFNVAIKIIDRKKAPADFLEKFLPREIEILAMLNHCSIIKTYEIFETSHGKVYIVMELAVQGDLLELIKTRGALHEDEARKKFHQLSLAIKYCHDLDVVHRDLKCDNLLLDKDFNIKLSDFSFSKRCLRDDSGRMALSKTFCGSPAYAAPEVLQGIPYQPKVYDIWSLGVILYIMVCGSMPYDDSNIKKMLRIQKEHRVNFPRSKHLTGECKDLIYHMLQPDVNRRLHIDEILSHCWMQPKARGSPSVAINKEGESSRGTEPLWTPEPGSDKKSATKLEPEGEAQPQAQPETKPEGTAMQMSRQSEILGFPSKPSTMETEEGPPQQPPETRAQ
Chain of SUMO-activating enzyme (Q9UBE0 whole entry): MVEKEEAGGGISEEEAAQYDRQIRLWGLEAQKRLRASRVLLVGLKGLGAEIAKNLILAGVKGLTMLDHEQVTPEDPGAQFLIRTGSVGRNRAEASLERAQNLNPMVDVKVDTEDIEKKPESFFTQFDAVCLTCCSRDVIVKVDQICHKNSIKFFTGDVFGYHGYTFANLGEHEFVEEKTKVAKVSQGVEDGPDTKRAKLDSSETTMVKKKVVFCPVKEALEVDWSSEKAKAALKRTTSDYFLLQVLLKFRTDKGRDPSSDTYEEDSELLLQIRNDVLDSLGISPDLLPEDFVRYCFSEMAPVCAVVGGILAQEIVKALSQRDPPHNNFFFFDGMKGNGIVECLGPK
Chain of SUMO-activating enzyme (Q9UBT2 whole entry): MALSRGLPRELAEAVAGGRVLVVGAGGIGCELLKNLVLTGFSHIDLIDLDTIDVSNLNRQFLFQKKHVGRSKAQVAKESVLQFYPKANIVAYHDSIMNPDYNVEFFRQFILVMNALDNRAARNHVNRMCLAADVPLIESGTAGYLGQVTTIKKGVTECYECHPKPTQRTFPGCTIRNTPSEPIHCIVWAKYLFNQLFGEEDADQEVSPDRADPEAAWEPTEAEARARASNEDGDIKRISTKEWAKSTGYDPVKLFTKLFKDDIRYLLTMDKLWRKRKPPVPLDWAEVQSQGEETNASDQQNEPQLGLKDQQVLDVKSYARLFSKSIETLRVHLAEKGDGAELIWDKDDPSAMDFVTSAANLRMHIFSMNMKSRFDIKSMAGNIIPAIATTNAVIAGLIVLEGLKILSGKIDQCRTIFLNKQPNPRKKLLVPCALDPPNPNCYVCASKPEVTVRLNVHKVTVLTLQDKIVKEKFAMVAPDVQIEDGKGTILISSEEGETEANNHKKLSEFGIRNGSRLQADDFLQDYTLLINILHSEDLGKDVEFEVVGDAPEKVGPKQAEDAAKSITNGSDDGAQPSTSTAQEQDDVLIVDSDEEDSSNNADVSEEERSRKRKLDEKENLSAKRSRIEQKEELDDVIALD
Chain of Phosphorylase b kinase gamma catalytic chain, liver/testis isoform (P15735 whole entry, canonical isoform): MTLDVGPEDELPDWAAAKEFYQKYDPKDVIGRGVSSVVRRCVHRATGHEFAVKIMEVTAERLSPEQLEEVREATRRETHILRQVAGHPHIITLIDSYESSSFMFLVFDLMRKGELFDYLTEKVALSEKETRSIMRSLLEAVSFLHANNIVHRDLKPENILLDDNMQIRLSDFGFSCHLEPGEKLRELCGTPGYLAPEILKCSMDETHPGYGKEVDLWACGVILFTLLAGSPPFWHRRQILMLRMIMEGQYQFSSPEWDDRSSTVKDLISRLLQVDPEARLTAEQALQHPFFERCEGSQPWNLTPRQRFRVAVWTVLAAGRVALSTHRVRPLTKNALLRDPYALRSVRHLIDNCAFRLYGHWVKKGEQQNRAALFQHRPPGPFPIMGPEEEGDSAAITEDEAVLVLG

Structure (SMILES): COc1cc(Br)c(C(=O)c2nccc3cc(OC)c(OC)cc23)cc1OC
IC50 [1]: 35.6 µM (active)
IC50 (Caspase-3): 0.407 µM (active)
IC50 (SUMO-activating enzyme): 0.42 µM (active)
IC50 [2]: 14.3 µM (active)

Ki [3]: > 1.26 µM (inactive)
Ki [4]: > 3.16 µM (inactive)
Ki (Activated CDC42 kinase 1): > 3.98 µM (inactive)
Ki [5]: 3.98 µM (active)
Ki [6]: 1.58 µM (active)
Ki [7]: > 7.94 µM (inactive)
Ki [8]: 1 µM (active)
Ki [9]: > 5.01 µM (inactive)
Ki (Focal adhesion kinase 1): > 3.16 µM (inactive)
Ki [10]: 0.02 µM (active)
Ki [11]: > 3.98 µM (inactive)
Ki (Aurora kinase A): > 2 µM (inactive)
Ki [12]: > 2 µM (inactive)
Ki [13]: > 1.58 µM (inactive)
Ki [14]: > 10 µM (inactive)
Ki [15]: > 3.16 µM (inactive)
Ki [16]: > 3.98 µM (inactive)
Ki [17]: > 3.16 µM (inactive)
Ki [18]: 1.26 µM (active)
Structure (SMILES): CC(N)C1CCC(C(=O)Nc2ccnc3[nH]ccc23)CC1 (stereo not drawn)
